How the values were obtained:
TAF1-BD2 = TAF1-BD2 (Homo sapiens, UniProt P21675); assay: TAF1-BD2 TR-FRET Binding Assay; conditions: read-out: TAF1-BD2 HTRF IC50
Method: IC50 Measurements for Inhibitors Using TAF1-BD2 TR-FRET Binding Assay
His/Flag epitope tagged TAF1-BD21504-1635 was cloned, expressed, and purified to homogeneity. TAF1-BD2 binding and inhibition was assessed by monitoring the engagement of a biotinylated small molecule compound 1000 with the target using the TR-FRET assay technology (Perkin-Elmer). Specifically, in a 384 well ProxiPlate, TAF1-BD2 (0.012 uM final) in 50 mM HEPES (pH 7.5; final), 50 mM NaCl (final), 1 mM TCEP (final), 0.1 mg/mL BSA (final), and 0.069 mM Brij-35 (final) was added either in the presence of DMSO (final 0.2% DMSO) or compound dilution series in DMSO. After a 10 minute incubation at room temperature, biotin-ligand (0.04 uM final) was added. After 10 minutes incubation at room temperature, a mixture Eu-W1024 Anti-6×His antibody (Perkin Elmer AD0110) and SureLight™ Streptavidin-Allophycocyanin (SA-APC, Perkin Elmer CR130-100) were added to a final concentration of 0.2 nM antibody and 0.025 uM SA-APC, respectively. After forty minutes of equilibration at room temperature, the plates were read on an Envision instrument and IC50s calculated using a four parameter logistic model (XLFIT).

TAF1-BD1 = TAF1-BD1 (Homo sapiens, UniProt P21675); assay: TAF1-BD1 TR-FRET Binding Assay; conditions: read-out: TAF1-BD1 HTRF IC50
Method: IC50 Measurements for Inhibitors Using TAF1-BD1 TR-FRET Binding Assay
His/Flag epitope tagged TAF1-BD11381-1497 was cloned, expressed, and purified to homogeneity. TAF1-BD binding and inhibition was assessed by monitoring the engagement of a biotinylated small molecule compound 1000 with the target using the TR-FRET assay technology (Perkin-Elmer). Specifically, in a 384 well ProxiPlate, TAF1-BDI (0.08 uM final) in 50 mM HEPES (pH 7.5; final), 50 mM NaCl (final), 1 mM TCEP (final), 0.1 mg/mL BSA (final), and 0.069 mM Brij-35 (final) was added either in the presence of DMSO (final 0.2% DMSO) or compound dilution series in DMSO. After a 10 minute incubation at room temperature, biotin-ligand (0.08 uM final) was added. After 10 minutes incubation at room temperature, a mixture Eu-W1024 Anti-6×His antibody (Perkin Elmer ADO 110) and SureLight™ Streptavidin-Allophycocyanin (SA-APC, Perkin Elmer CR130-100) were added to final concentrations of 0.2 nM antibody and 0.05 uM SA-APC, respectively. After forty minutes of equilibration at room temperature, the plates were read on an Envision instrument and IC50s calculated using a four parameter logistic model (XLFIT).

SMILES	IC50 (TAF1-BD2) [nM]	IC50 (TAF1-BD1) [nM]
CCOC(=O)c1c(C)[nH]c2c(=O)n(C)cc(C#CC3(O)CC3)c12 [Example 18, ethyl 4-[2-(1-hydroxycyclopropyl)ethynyl]-2,6-dimethyl-7-oxo-1H-pyrrolo[2,3-c]pyridine-3-carboxylate]	85.4	632
CCOC(=O)c1c(C)[nH]c2c(=O)n(C)cc(C#CC3(O)CCCC3)c12 [Example 20, ethyl 4-[2-(1-hydroxycyclopentyl)ethynyl]-2,6-dimethyl-7-oxo-1H-pyrrolo[2,3-c]pyridine-3-carboxylate]	21.9	282
CCOC(=O)c1c(C)[nH]c2c(=O)n(C)cc(C#CC3(O)CCC3)c12 [Example 21, ethyl 4-[2-(1-hydroxycyclobutyl)ethynyl]-2,6-dimethyl-7-oxo-1H-pyrrolo[2,3-c]pyridine-3-carboxylate]	61.1	407
CCOC(=O)c1c(C)[nH]c2c(=O)n(C)cc(C#CC(C)(C)NC(C)=O)c12 [Example 22, ethyl 4-(3-acetamido-3-methyl-but-1-ynyl)-2,6-dimethyl-7-oxo-1H-pyrrolo[2,3-c]pyridine-3-carboxylate]	523	804
CCOC(=O)c1c(C)[nH]c2c(=O)n(C)cc(C#CC(C)(C)OC)c12 [Example 26, ethyl 4-(3-methoxy-3-methyl-but-1-ynyl)-2,6-dimethyl-7-oxo-1H-pyrrolo[2,3-c]pyridine-3-carboxylate]	284	503
CCOC(=O)c1c(C)[nH]c2c(=O)n(C)cc(C#CC3(O)COC3)c12 [Example 30, ethyl 4-[2-(3-hydroxyoxetan-3-yl)ethynyl]-2,6-dimethyl-7-oxo-1H-pyrrolo[2,3-c]pyridine-3-carboxylate]	87.3	634
CCOC(=O)c1c(C)[nH]c2c(=O)n(C)cc(C#CC(C)(C)C(=O)NC)c12 [Example 32, ethyl 4-[3,3-dimethyl-4-(methylamino)-4-oxo-but-1-ynyl]-2,6-dimethyl-7-oxo-1H-pyrrolo[2,3-c]pyridine-3-carboxylate]	1320	802
CCOC(=O)c1c(C)[nH]c2c(=O)n(C)cc(C#CC(C)(C)C(=O)N(C)C)c12 [Example 36, ethyl 4-[4-(dimethylamino)-3,3-dimethyl-4-oxo-but-1-ynyl]-2,6-dimethyl-7-oxo-1H-pyrrolo[2,3-c]pyridine-3-carboxylate]	375	1310
CCOC(=O)c1c(C)[nH]c2c(=O)n(C)cc(C#CC(O)(c3cccc(-c4cn[nH]c4)c3)C(F)(F)F)c12 (centres unmarked) [Example 41, ethyl 2,6-dimethyl-7-oxo-4-[4,4,4-trifluoro-3-hydroxy-3-[3-(1H-pyrazol-4-yl)phenyl]but-1-ynyl]-1H-pyrrolo[2,3-c]pyridine-3-carboxylate]	21.5	171
CCOC(=O)c1c(C)[nH]c2c(=O)n(C)cc(C#CC(O)(c3ccn(C)n3)C(F)(F)F)c12 (centres unmarked) [Example 42, ethyl 2,6-dimethyl-7-oxo-4-[4,4,4-trifluoro-3-hydroxy-3-(1-methylpyrazol-3-yl)but-1-ynyl]-1H-pyrrolo[2,3-c]pyridine-3-carboxylate]	96.9	657

Now from value to molecule:

IC50 (TAF1-BD2) [nM]	IC50 (TAF1-BD1) [nM]	SMILES
67.3	404	CCOC(=O)c1c(C)[nH]c2c(=O)n(C)cc(C#CC(C)(O)COc3ccccc3)c12 (centres unmarked) [Example 17, ethyl 4-(3-hydroxy-3-methyl-4-phenoxy-but-1-ynyl)-2,6-dimethyl-7-oxo-1H-pyrrolo[2,3-c]pyridine-3-carboxylate]
30.3	146	CCOC(=O)c1c(C)[nH]c2c(=O)n(C)cc(C#CC(C)(O)c3cccc(C#N)c3)c12 (centres unmarked) [Example 19, ethyl 4-[3-(3-cyanophenyl)-3-hydroxy-but-1-ynyl]-2,6-dimethyl-7-oxo-1H-pyrrolo[2,3-c]pyridine-3-carboxylate]
58.6	182	CCOC(=O)c1c(C)[nH]c2c(=O)n(C)cc(C#CC(C)(O)CCc3ccccc3)c12 (centres unmarked) [Example 23, ethyl 4-(3-hydroxy-3-methyl-5-phenyl-pent-1-ynyl)-2,6-dimethyl-7-oxo-1H-pyrrolo[2,3-c]pyridine-3-carboxylate]
138	536	CCOC(=O)c1c(C)[nH]c2c(=O)n(C)cc(C#CC(O)(CC)CC)c12 [Example 24, ethyl 4-(3-ethyl-3-hydroxy-pent-1-ynyl)-2,6-dimethyl-7-oxo-1H-pyrrolo[2,3-c]pyridine-3-carboxylate]
373	848	CCOC(=O)c1c(C)[nH]c2c(=O)n(C)cc(C#CC(C)(C)OCc3ccccc3)c12 [Example 25, ethyl 4-(3-benzyloxy-3-methyl-but-1-ynyl)-2,6-dimethyl-7-oxo-1H-pyrrolo[2,3-c]pyridine-3-carboxylate]
52.5	234	CCOC(=O)c1c(C)[nH]c2c(=O)n(C)cc(C#CC(C)(O)c3cccnc3)c12 (centres unmarked) [Example 28, ethyl 4-[3-hydroxy-3-(3-pyridyl)but-1-ynyl]-2,6-dimethyl-7-oxo-1H-pyrrolo[2,3-c]pyridine-3-carboxylate]
60	218	CCOC(=O)c1c(C)[nH]c2c(=O)n(C)cc(C#CC(C)(O)c3cccc(F)c3)c12 (centres unmarked) [Example 33, ethyl 4-[3-(3-fluorophenyl)-3-hydroxy-but-1-ynyl]-2,6-dimethyl-7-oxo-1H-pyrrolo[2,3-c]pyridine-3-carboxylate]
100	139	CCOC(=O)c1c(C)[nH]c2c(=O)n(C)cc(C#CC(C)(O)CC#N)c12 (centres unmarked) [Example 35, ethyl 4-(4-cyano-3-hydroxy-3-methyl-but-1-ynyl)-2,6-dimethyl-7-oxo-1H-pyrrolo[2,3-c]pyridine-3-carboxylate]
221	382	CCOC(=O)c1c(C)[nH]c2c(=O)n(C)cc(C#CC(C)(C)C(N)=O)c12 [Example 37, ethyl 4-(4-amino-3,3-dimethyl-4-oxo-but-1-ynyl)-2,6-dimethyl-7-oxo-1H-pyrrolo[2,3-c]pyridine-3-carboxylate]
76.9	525	CCOC(=O)c1c(C)[nH]c2c(=O)n(C)cc(C#CC(O)(c3cccc(N(C)C)c3)C(F)(F)F)c12 (centres unmarked) [Example 39, ethyl 4-[3-[3-(dimethylamino)phenyl]-4,4,4-trifluoro-3-hydroxy-but-1-ynyl]-2,6-dimethyl-7-oxo-1H-pyrrolo[2,3-c]pyridine-3-carboxylate]
69.2	355	CCOC(=O)c1c(C)[nH]c2c(=O)n(C)cc(C#CC(O)(c3cccc(C#N)c3)C(F)(F)F)c12 (centres unmarked) [Example 40, ethyl 4-(3-(3-cyanophenyl)-4,4,4-trifluoro-3-hydroxybut-1-yn-1-yl)-2,6-dimethyl-7-oxo-6,7-dihydro-1H-pyrrolo[2,3-c]pyridine-3-carboxylate]
35.5	257	CCOC(=O)c1c(C)[nH]c2c(=O)n(C)cc(C#CC(O)(c3cccc(CO)c3)C(F)(F)F)c12 (centres unmarked) [Example 43, ethyl 2,6-dimethyl-7-oxo-4-[4,4,4-trifluoro-3-hydroxy-3-[3-(hydroxymethyl)phenyl]but-1-ynyl]-1H-pyrrolo[2,3-c]pyridine-3-carboxylate]

From patent US10202378B2, “Therapeutic compounds and uses thereof” (GENENTECH, INC., priority 2015, dated 2019)
